Experimental data published in US8354414B2, “Substituted bicyclic pyrimidines” (Cephalon, Inc, priority 2006, dated 2013).
Like-named read-outs stand apart in the source and are kept apart here.

Columns and labels:
[1] = biological target: T1, His6-GSK-3β (Homo sapiens, UniProt P49841); assay: Inhibition of His6-GSK-3β kinase activity (ELISA-based format, time-resolved fluorescence readout); assay type: biochemical; conditions: read-out: GSK3β IC50
T1 construct: made in house; host or cells: Sf21 insect cells (baculovirus)
Procedure, shortened: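 Plate-bound recombinant GST-Rb substrate was phosphorylated for 30 min at 37° C by baculovirus-expressed His6-GSK-3β (200 ng/ml) at 20 μM ATP, 10 mM MgCl2, 2.5% DMSO. Europium time-resolved fluorescence of anti-phospho-Ser780 Rb signal gave inhibition, fitted to IC50.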

[2] = biological target: T2, CDK5/GST-p25 (Homo sapiens, UniProt Q00535); assay: Inhibition of CDK5/GST-p25 kinase activity (ELISA with time-resolved fluorescence readout); assay type: biochemical
T2 construct: The final construct, encoding for full-length human CDK5; made in house; host or cells: Sf21 insect cells (baculovirus co-infection)
Procedure, shortened: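 The substrate, GST-Rb(773-928), was immobilised on plates and phosphorylated for 20 min at 37 °C by 2 ng/ml CDK5/GST-p25 in HEPES pH 7.2 with 10 µM ATP and 10 mM MgCl2. Both proteins were human and co-expressed in insect cells. Ser-780 phosphorylation was read by europium time-resolved fluorescence and converted to IC50.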

T2 sequence (Q00535 whole entry): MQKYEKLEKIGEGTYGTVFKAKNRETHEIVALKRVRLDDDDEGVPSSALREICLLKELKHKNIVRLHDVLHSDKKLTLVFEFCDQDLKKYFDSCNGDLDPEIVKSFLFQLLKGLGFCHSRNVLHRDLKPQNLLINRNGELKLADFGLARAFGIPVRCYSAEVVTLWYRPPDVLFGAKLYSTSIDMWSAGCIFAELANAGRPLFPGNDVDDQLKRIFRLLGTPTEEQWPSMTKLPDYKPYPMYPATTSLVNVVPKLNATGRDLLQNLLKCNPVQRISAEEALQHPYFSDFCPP
T2 sequence (Q15078 108-307 partner limits assumed): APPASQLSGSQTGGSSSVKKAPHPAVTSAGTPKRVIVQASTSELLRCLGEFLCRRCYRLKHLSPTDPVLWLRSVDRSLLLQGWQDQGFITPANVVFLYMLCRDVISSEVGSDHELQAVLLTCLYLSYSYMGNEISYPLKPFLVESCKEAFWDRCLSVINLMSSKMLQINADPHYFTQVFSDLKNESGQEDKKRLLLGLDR
T1 sequence (P49841 2-419): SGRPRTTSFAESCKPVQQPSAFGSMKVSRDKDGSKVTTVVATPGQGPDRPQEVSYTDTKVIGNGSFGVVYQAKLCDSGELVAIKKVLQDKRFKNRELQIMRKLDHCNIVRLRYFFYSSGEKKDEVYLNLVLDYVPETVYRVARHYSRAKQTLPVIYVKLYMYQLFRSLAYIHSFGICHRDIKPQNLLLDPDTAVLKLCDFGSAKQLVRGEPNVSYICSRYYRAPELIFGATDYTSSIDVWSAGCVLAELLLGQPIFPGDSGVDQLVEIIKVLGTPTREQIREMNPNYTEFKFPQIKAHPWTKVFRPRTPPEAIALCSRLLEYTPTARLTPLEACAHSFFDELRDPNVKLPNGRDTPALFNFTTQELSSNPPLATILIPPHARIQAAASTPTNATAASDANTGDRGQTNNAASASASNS

SMILES	melting point	IC50 ([1]; class symbols)	IC50 ([2]; numeric bounds)	IC50 ([1]; numeric bounds)	IC50 ([2]; class symbols)
O=C1Nc2ccc(C(F)(F)F)cc2C1c1nc(Cl)nc2nn(C3CCCC3)cc12 (stereo not drawn) [Example 153, 3-(6-Chloro-2-cyclopentyl-2H-pyrazolo [3,4-d]pyrimidin-4-yl)-5-trifluoromethyl-1,3-dihydro-indol-2-one]	> 300 °C	–	–	> 3000 nM	> 10000 nM
CCCn1cc2c(C3C(=O)Nc4ccc(C#N)cc43)nc(NCCc3cccnc3)nc2n1 (stereo not drawn) [Example 185, 2-Oxo-3-[2-propyl-6-(2-pyridin-3-yl-ethylamino)-2H-pyrazolo [3,4-d]pyrimidin-4-yl]-2,3-dihydro-1H-indole-5-carbonitrile]	302 to 305 °C	< 300 nM	–	–	< 300 nM
CCCn1cc2c(C3C(=O)Nc4ccc(S(=O)(=O)N(C)C)cc43)nc(Cl)nc2n1 (stereo not drawn) [Example 204, 3-(6-Chloro-2-propyl-2H-pyrazolo [3,4-d]pyrimidin-4-yl)-2-oxo-2,3-dihydro-1H-indole-5-sulfonic acid dimethylamide]	> 300 °C	–	–	> 3000 nM	300 to 3000 nM
CC(C)Nc1nc(C2C(=O)Nc3ccc(C(F)(F)F)cc32)c2cn(C3CCCC3)nc2n1 (stereo not drawn) [Example 250, 3-(2-Cyclopentyl-6-isopropylamino-2H-pyrazolo[3,4-d]pyrimidin-4-yl)-5-trifluoromethyl-1,3-dihydro-indol-2-one]	299 to 301 °C	< 300 nM	–	–	> 10000 nM
O=C1Nc2ccc(Cl)cc2C1c1ncnc2nn(C3CCCC3)cc12 (stereo not drawn) [Example 36, 5-Chloro-3-(2-Cyclopentyl-2H-pyrazolo [3,4-d]pyrimidin-4-yl)-2-oxo-1,3-dihydro-indol-2-one]	290 to 292 °C	< 300 nM	–	–	< 300 nM
CCCn1cc2c(C3C(=O)Nc4ccc(Br)cc43)nc(NCCc3ccccn3)nc2n1 (stereo not drawn) [Example 191, 5-Bromo-3-[2-propyl-6-(2-pyridin-2-yl-ethylamino)-2H-pyrazolo [3,4-d]pyrimidin-4-yl]-1,3-dihydro-indol-2-one]	283 to 291 °C	< 300 nM	–	–	< 300 nM
O=C1Nc2ccc(Cl)cc2C1c1ncnc2nn(C3CCCCC3)cc12 (stereo not drawn) [Example 48, 5-Chloro-3-(2-cyclohexyl-2H-pyrazolo[3,4-d]pyrimidin-4-yl)-1,3-dihydro-indol-2-one]	294 to 298 °C	< 300 nM	–	–	300 to 3000 nM
Cn1ncc2c(C3C(=O)Nc4ccc(Br)cc43)ncnc21 (stereo not drawn) [Example 85, 5-Bromo-3-(1-methyl-1H-pyrazolo[3,4-d]pyrimidin-4-yl)-1,3-dihydro-indol-2-one]	> 350 °C	–	–	> 3000 nM	< 300 nM

More lines, now with the values ahead:

melting point	IC50 ([1]; class symbols)	IC50 ([2]; numeric bounds)	IC50 ([1]; numeric bounds)	IC50 ([2]; class symbols)	SMILES
201 to 204 °C	300 to 3000 nM	> 3000 nM	–	–	CNCCNc1nc(C2C(=O)Nc3ccc(Br)cc32)c2cn(C3CCCC3)nc2n1.Cl (stereo not drawn) [Example 378, 5-Bromo-3-[2-cyclopentyl-6-(2-methylamino-ethylamino)-2H-pyrazolo [3,4-d]pyrimidin-4-yl]-1,3-dihydro-indol-2-one hydrochloride salt]
261 to 264.5 °C	< 300 nM	–	–	< 300 nM	CC(C)Cn1cc2c(C3C(=O)Nc4ccc(Br)cc43)nc(NCCN(C)C)nc2n1 (stereo not drawn) [Example 268, 5-Bromo-3-[6-(2-dimethylamino-ethylamino)-2-isobutyl-2H-pyrazolo[3,4-d]pyrimidin-4-yl]-1,3-dihydro-indol-2-one]
282 to 287 °C	< 300 nM	–	–	< 300 nM	CC(C)Cn1cc2c(C3C(=O)Nc4ccc(Br)cc43)nc(NCCN3CCOCC3)nc2n1 (stereo not drawn) [Example 264, 5-Bromo-3-[2-isobutyl-6-(2-morpholin-4-yl-ethylamino)-2H-pyrazolo[3,4-d]pyrimidin-4-yl]-1,3-dihydro-indol-2-one]
295 °C (dec.)	–	–	> 3000 nM	> 10000 nM	CC(C)Cn1cc2c(C3C(=O)Nc4ccc(Br)cc43)nc(Cl)nc2n1 (stereo not drawn) [Example 262, 5-Bromo-3-(6-chloro-2-isobutyl-2H-pyrazolo[3,4-d]pyrimidin-4-yl)-1,3-dihydro-indol-2-one]
